Patent US12053446B1, “Methods for the prevention and treatment of hearing loss using Oseltamivir” (Ting Therapeutics LLC, priority 2022, dated 2024)
pIC50: −log10 of the molar value.

How the values were obtained:
[1] = tested on: inner ear cell line HEI-OC1; assay: high-throughput screen of FDA-approved drugs for cisplatin-induced cell-death protection; assay type: cell-based; conditions: 1,300 FDA-approved drugs screened
Text: Oseltamivir is an oral widely used anti-viral drug. Significant protection by Oseltamivir against hearing loss is shown herein in doses equivalent to those approved for human use.

[2] = tested on: P3 FVB mouse cochlear explants; assay: cisplatin-induced hair cell death in P3 FVB mouse cochlear explants; assay type: cell-based
Protocol: Now referring to FIG. 1A, a representation of the chemical structure of Oseltamivir phosphate is shown. […] The explants were treated for 24 hours. […] Percent protection for compound at the tested dosages were then plotted to show dose response curves, and IC50 were calculated.
Experimental procedures for the images shown in FIG. 1C are as follows: Mice were approved by the Institutional Animal Care and Use Committee (IACUC) at the Creighton University. Inner ears were collected from the post-natal day 3 (P3) FVB mice and transferred onto a filter (Millicell, PICM03050; Millipore) soaked in culturing medium. The filter was placed in 6-well culture plates with 1.2 mL medium outside the filter. […] Cells may be maintained in culture with the aid of Matrigel as previously described in Kelley and Driver, Curr. Protoc. Neurosci.

[3] = tested on: adult P42 FVB mice; assay: noise-induced hearing loss in adult mice, Oseltamivir pre-treatment before noise exposure; assay type: in vivo, mouse
Protocol: (§1) Now referring to FIG. 2A, adult P42 FVB mice began treatment with Oseltamivir administered oral gavage at 100 mg/kg body weight twice daily for three days once 45 minutes before exposure and then for two days after noise exposure. Now referring to FIG. 2B, auditory brainstem response (ABR) were recorded 14 days after noise exposure of 100 dB, 8-16 kHz octave band, for two hours. […] Control is shown as carrier. Statistical analysis was done with repeated measures ANOVA between groups. Mean±SEM, P=**<0.01, ***<0.001, compared to noise alone by two-way ANOVA with Bonferroni post-hoc test.
The experimental procedures for the data shown in FIGS. 2A-B are as follows: Animals were anesthetized with avertin. Subcutaneous needle electrodes were inserted behind the pinna (inverting), vertex of the skull (non-inverting) and base of the tail (ground). Tone bursts of 5 ms duration with 0.5 ms cosine-squared envelopes delivered at a rate of 21 stimuli per second with alternating polarity were generated using BioSigRZ software and RZ6 multi I/O processor system (Tucker-Davis Technologies, FL). Stimuli were presented as open field via a speaker (MF1: TDT, FL) placed 10 cm in front of the pinna of the animal. Evoked responses were amplified (20×), bandpass filtered (300-3,000 Hz) and average of 512 responses of 10 ms duration was recorded. […]

[4] = tested on: adult P42 FVB mice; assay: noise-induced hearing loss in adult mice, Oseltamivir treatment 24 hours after noise exposure; assay type: in vivo, mouse
Text: The experimental procedures for the data shown in FIGS. 2A-B are as follows: Animals were anesthetized with avertin. Subcutaneous needle electrodes were inserted behind the pinna (inverting), vertex of the skull (non-inverting) and base of the tail (ground). Tone bursts of 5 ms duration with 0.5 ms cosine-squared envelopes delivered at a rate of 21 stimuli per second with alternating polarity were generated using BioSigRZ software and RZ6 multi I/O processor system (Tucker-Davis Technologies, FL). Stimuli were presented as open field via a speaker (MF1: TDT, FL) placed 10 cm in front of the pinna of the animal. Evoked responses were amplified (20×), bandpass filtered (300-3,000 Hz) and average of 512 responses of 10 ms duration was recorded. Stimulus intensity was decreased in 5 dB increments, starting from 100 dB SPL to 0 dB SPL. Thresholds at 4, 5.6, 8, 16, 22.6, 32, 45.2, and 64 kHz were identified by visual inspection from stacked waveforms as the lowest level at which reproducible response could be identified. Before the start of every session, stimulus presenting speaker (MF1) was calibrated with a ¼″ microphone (PCB-378C10; PCB Piezotronics, NY) that was also placed 10 cm in front of the speaker. Similar experiments have been previously described in Rai V. et al., Sci Rep. 2020 Sep. 16; 10(1):15167.
as §1, with “3A,” for “2A,”, “beginning 24 hours following noise” for “once 45 minutes before”, “of 100 dB, 8-16 kHz octave band,” for “and then”, “hours.” for “days after noise exposure.”, “3B,” for “2B,”
Now referring to […], amplitudes of auditory Brainstem Response wave 1 from auditory brainstem response recording of FIG. 3A. The auditory Brainstem Response wave-1 amplitude represents the summed activity of the cochlear nerve. Mean wave-1 amplitudes was measured in the control and Oseltamivir-treated mice before and after noise exposure. Amplitudes from the 90 dB SPL stimuli were compared between groups using a two-factor ANOVA (group× frequency), and difference was detected between the noise alone group to Oseltamivir plus noise. at 14 days post-noise exposure.
Now referring to FIG. 3D, Distortion Product Otoacoustic Emissions (DPOAE) threshold shifts were measured in adult FVB mice 14 days after noise exposure of 100 dB, 8-16 kHz octave band, for two hours. DPOAE audiograms provide a direct indicator of cochlear sensitivity at the level of the OHC. […] Control is shown as carrier. Statistical analysis was done with repeated measures ANOVA between groups. Mean±SEM, P=**<0.01, ***<0.001, compared to noise alone by two-way ANOVA with Bonferroni post-hoc test.
Now referring to FIG. 3F, Oseltamivir administered post-noise exposure is shown to increase number of CtBP2 puncta. Number of CtBP2 puncta per IHC at the 16 kHz cochlear region were counted, data shown as mean±SEM, P=**<0.01, ***<0.001 by one-way ANOVA with Bonferroni post-hoc test, n=6-7 cochleae. An average of 4 CtBP2 puncta per IHC are restored compared to group exposed to noise without Oseltamivir treatment.
Experimental procedure for distortion product otoacoustic emissions (DPOAE) measurements, primary tones were set to generate 2f1-f2 distortion products at frequencies between 1 and 50 kHz, DPOAEs were measured for levels of f1 ranging from 10 to 80 dB SPL, with the levels of the f2 tone set 10 dB below that of the f1 tone. Similar experiments are described in Lukashkina A. V. et al., Scientific reports, July 12; 7(1), 5185. (2017). Similar Ctpb2/MyosinVI experiments are described in Liu Z et al., PLoS One. Feb. 20, 2014; 9(2):e89377 (2014).

[5] = tested on: adult 12 weeks old CBA/CaJ mice; assay: cisplatin-induced hearing loss in adult mice, multi-dose cisplatin regimen; assay type: in vivo, mouse
Protocol: Now referring to FIG. 4B, mice exposed to multi-dose cisplatin treatments show reduced reduction in wave 1 amplitude 16 kHz recording form 30-90 dB SPL, and Oseltamivir treatment at the dose of 50 mg/kg increased the 16-kHz wave-1 amplitude at 90 SPL.
Now referring to FIG. 4C, Oseltamivir (10 mg/kg and 50 mg/kg doses) increased the percent of total mice surviving 40 days after beginning of cisplatin exposure. Auditory Brainstem Response threshold shifts recorded as previously described. Similar wave-1 amplitude recordings have been described Hazlitt J et al., Med. Chem. 61, 7700-7709 (2018); Teitz et al., J. Exp. Med. 215, 1187-1203 (2018).
Now referring to FIG. 5A, confocal images of myosin-VI stained basal, middle, apical turn cochlear regions show outer hair cells of mice exposed to treatment of 50 mg/kg Oseltamivir alone or exposed to cisplatin with or without treatment of 10 or 50 mg/kg Oseltamivir. Now referring to FIG. 5B, count of outer hair cells per 160 μm for cochlear regions. Mean±SEM, P=*<0.05, **<0.01, compared to noise alone by two-way ANOVA with Bonferroni post-hoc test. N=5 cochleae counted per bar. Similar Myosin VI experiments are described in Liu Z et al., PLoS One. Feb. 20, 2014; 9(2):e89377 (2014).

With `CCOC(=O)C1=C[C@@H](OC(CC)CC)[C@H](NC(C)=O)[C@@H](N)C1` [Oseltamivir, oseltamivir phosphate] the “hit in screen for cisplatin-induced cell-death protection” value [1] was “one of the best hits”, the “protection against cisplatin induced hair cell loss, phalloidin-stained middle turn images” value ([2]; 3 μM Oseltamivir and 150 μM Cisplatin) was “shows protection” and the pIC50 ([2]; Mus musculus, Oseltamivir added 1 h before cisplatin (150 μM), 24 h, read-out: IC50 (percent protection from cisplatin-induced hair cell death)) was 6.35. For the same compound, the LD50 ([2]; Oseltamivir alone, cochlear explants, 24 h) was over 100 µM, the “protection, auditory brainstem response measurements” value ([3]; 100 mg/kg oral gavage twice daily for three days, first dose 45 minutes before noise (100 dB, 8-16 kHz, two hours), ABR 14 days after noise) was 24-28 dB and the “ABR threshold shift vs noise-exposed control” value ([3]; 100 mg/kg oral twice daily, three days, starting 45 minutes before noise, 14 days after noise) was “Significant protection against hearing loss”. The “ABR threshold shift vs noise-exposed control” value ([4]; 100 mg/kg oral twice daily, three days, beginning 24 hours after noise, 14 days after noise) was “Significant protection against hearing loss”, the “loss of CtBP2-puncta in inner hair cells vs noise alone” value ([4]; 16 kHz cochlear region) was “partially restores” and the “CtBP2 puncta per IHC restored vs noise without Oseltamivir” value ([4]; 16 kHz cochlear region, post-noise administration, average) was 4. For the same compound, the “ABR wave-1 amplitude vs noise exposure only group” value ([4]; 16 kHz, 90 dB SPL, 14 days post-noise exposure) was “higher amplitudes”, the “DPOAE threshold shift vs noise-exposed control” value ([4]; 14 days after noise exposure of 100 dB, 8-16 kHz, two hours) was “Significant protection against hearing loss” and the “protection, auditory Brainstem Response and DPOAE measurements” value ([4]; oral, 45 minutes before noise exposure and 24 hours after noise exposure, three consecutive days) was 20-28 dB. The “protection against noise-induced hearing loss (ABR threshold shift)” value ([4]; treatment 24 hours after noise exposure, 100, 50 and 10 mg/kg, 8, 16, 32 kHz) was “protects”, the “16-kHz wave-1 amplitude” value ([5]; 50 mg/kg Oseltamivir, 90 SPL, multi-dose cisplatin) was “increased” and the “auditory brainstem response threshold shift vs cisplatin without treatment” value ([5]; 8, 16, and 32 kHz, 10 and 50 mg/kg Oseltamivir oral twice-daily, cisplatin 3 mg/kg IP, 3 cycles) was “lower”. For the same compound, the “percent of total mice surviving” value ([5]; 40 days after beginning of cisplatin exposure, 10 mg/kg and 50 mg/kg) was “increased” and the “outer hair cells, Myosin VI stained basal, middle, apical cochlear regions” value ([5]; multi-dose cisplatin regimen, 10 or 50 mg/kg Oseltamivir) was “preserved outer hair cells in all regions”.
